From ChEMBL document CHEMBL3588857, “Peroxisome proliferator-activated receptor gamma (PPARγ) has multiple binding points that accommodate ligands in various conformations: Structurally similar PPARγ partial agonists bind to PPARγ LBD in different conformations” (Bioorg Med Chem Lett, 2015)
Active and inactive are the calls of the source. No cut-off for these calls is given here.

What was measured:
[1] = target: T1, Peroxisome proliferator-activated receptor gamma (Homo sapiens) (UniProt P37231); assay: Antagonist activity at PPARgamma (unknown origin) assessed as inhibition of 10 uM pioglitazone-induced receptor transactivation at 0.1 to 10 uM
T1 sequence (whole entry): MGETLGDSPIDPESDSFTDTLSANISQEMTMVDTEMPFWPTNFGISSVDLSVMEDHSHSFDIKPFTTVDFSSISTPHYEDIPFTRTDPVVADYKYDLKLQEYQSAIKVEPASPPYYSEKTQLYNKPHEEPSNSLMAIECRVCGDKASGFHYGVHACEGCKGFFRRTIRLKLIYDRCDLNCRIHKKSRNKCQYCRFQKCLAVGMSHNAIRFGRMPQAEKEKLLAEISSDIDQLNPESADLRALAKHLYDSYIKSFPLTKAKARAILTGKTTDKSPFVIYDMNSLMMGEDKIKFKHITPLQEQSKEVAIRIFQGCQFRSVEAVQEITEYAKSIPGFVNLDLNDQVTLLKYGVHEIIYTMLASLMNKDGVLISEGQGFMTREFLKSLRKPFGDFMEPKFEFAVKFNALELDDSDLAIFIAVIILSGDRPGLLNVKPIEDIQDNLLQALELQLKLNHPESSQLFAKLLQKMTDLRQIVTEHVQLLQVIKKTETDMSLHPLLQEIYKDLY

[2] = target: T1, Peroxisome proliferator-activated receptor gamma (Homo sapiens); assay: Partial agonist activity at PPARgamma (unknown origin) assessed as induction of receptor transactivation at 0.1 to 10 uM relative to 10 uM pioglitazone

Which results are given for `CCCOc1ccc(C(=O)NS(=O)(=O)Cc2ccccc2)cc1CNC(=O)c1ccc(-c2ncccn2)cc1`?
inhibition [1]: Dose-dependent effect; Activity [2]: Active
